Holding throughout (assay type): physicochemical
Series [1] is described as follows: Absorption strength (absorption spectrum in ethanol). As to conditions: for λmax: absorption maximum, dilute solution in ethanol; for E1% value: extinction at the absorption maximum extrapolated to 1 g/100 ml; for E1% value / Half-value width: ethanol; for Half-value width: half-value width of the absorption band. Also noted: λmax: unit not given here. On the procedure:
The measure used for the absorption strength is the so-called E1% value, and the half-value width of the absorption band in relation to the absorption maximum λmax indicated. The E1% value indicates the extinction at the absorption maximum extrapolated to a concentration of 1 g/100 ml. To this end, an absorption spectrum of the substance in ethanol is recorded in dilute solution. The values are compared with the reference spectra of curcumin and beta-carotene.

Series [2] can be described thus: Thermal stability by thermogravimetry. As to conditions: for Temperature at which 98% of the weight were still present: TGA, RT to 800° C., heating rate 10K/min; for thermal stabilities: verbal assessment, high-temperature processing possible without decomposition. The method, then: The thermal stability is determined with the aid of the thermogravimetry method (instrument TGA Q5000 V3.10 Build 258, temperature range RT to 800° C., heating rate 10K/min).

Series [3] in a line: Solubility determination in phenethyl benzoate (X-Tend 226). On the procedure:
The solubility determination was carried out in phenethyl benzoate (X-Tend 226): […]

A short description of series [4]: Fluorescence measurements. As to conditions: in ethanol; measurement concentration 0.00436 mg/ml (Example 4), 0.00048 mg/ml (Example 8), 0.00045 mg/ml (Example 17). On the procedure:
The substance concentrations in ethanol indicated in the table are measured using an Aminco Bowman 2 fluorescence spectrometer (cell thickness 1 cm; excitation 220-600 nm; emission 220-800 nm; spectral gap width (excitation) 4 nm, (emission) 8 nm; recording speed 10 nm/min; step width (excitation) 5 nm, (emission) 4 nm.

On to `CC1=C(/C=C/C(C)=C/C=C/C(C)=C/C=C/C=C(C)/C=C/C=C(C)/C=C/C2=C(C)CCCC2(C)C)C(C)(C)CCC1` [Beta-carotene, beta-carotene, reference compound], for which, in series [1], the λmax is given as 453, the E1% value is 408 and the Half-value width is 88 nm. The “Temperature at which 98% of the weight were still present” value in series [2] is recorded as 84° ° C. Also, the “Solubility in X-Tend 226” value in series [3] was determined as 0.2%.

In the case of `COc1cc(/C=C/C(=O)CC(=O)/C=C/c2ccc(O)c(OC)c2)ccc1O` [Curcumin, curcumin, reference compound], in series [1], the λmax is recorded as 426, the E1% value is recorded as 1507 and the Half-value width is on record as 78 nm. Moreover, the “Temperature at which 98% of the weight were still present” value in series [2] amounted to 223° ° C. Besides, the “Solubility in X-Tend 226” value in series [3] came to 0.4%.

As to `CCOC1(C)O/C(=C\c2ccc(OC)cc2)C(=O)/C(=C/c2ccc(OC)cc2)O1` (stereo not shown) [Example 1, (4Z,6Z)-2-ethoxy-4,6-bis[(4-methoxyphenyl)methylene]-2-methyl-1,3-dioxan-5-one], in series [1], the λmax was found to be 402, the E1% value is 873 and the Half-value width stood at 84 nm. In addition, in series [3], the “Solubility in X-Tend 226” value worked out at 2.8%.

As for `CCOC1(C)O/C(=C\c2ccc(OC)c(OC)c2)C(=O)/C(=C/c2ccc(OC)c(OC)c2)O1` (stereo not shown) [Example 2], in series [1], the λmax turned out to be 412, the E1% value is recorded as 617 and the Half-value width is 85 nm. In addition, in series [3], the “Solubility in X-Tend 226” value is given as 1.2%.

For the compound `CCOC1(C)O/C(=C\c2ccc(OC)cc2OC)C(=O)/C(=C/c2ccc(OC)cc2OC)O1` (stereo not shown) [Example 3], in series [1], the λmax was 419, the E1% value was 688 and the Half-value width came to 93 nm. For the same compound, the “Solubility in X-Tend 226” value in series [3] worked out at 1.0%.

Regarding `CCOC1(C)O/C(=C\c2cc(OC)c(OC)cc2OC)C(=O)/C(=C/c2cc(OC)c(OC)cc2OC)O1` (stereo not shown) [Example 4], in series [1], the λmax is 444, the E1% value was 304 and the Half-value width worked out at 92 nm. In addition, in series [2], the “Temperature at which 98% of the weight were still present” value was 256° ° C and the thermal stabilities entry is “excellent”. Further, in series [4], the Emission amounted to 596 nm and the Excitation stood at 440 nm. The “Solubility in X-Tend 226” value in series [3] was under 0.1%.

Take `CCOC1(C)O/C(=C\c2cc(OC)c(OC)c(OC)c2)C(=O)/C(=C/c2cc(OC)c(OC)c(OC)c2)O1` (stereo not shown) [Example 5]: in series [1], the λmax is reported as 394, the E1% value was 647 and the Half-value width is recorded as 85 nm. In addition, the “Solubility in X-Tend 226” value in series [3] worked out at 1.1%.

In the case of `CCCCCCCCOc1ccc(/C=C2\OC(C)(OCC)O/C(=C\c3ccc(OCCCCCCCC)cc3)C2=O)cc1` (stereo not shown) [Example 6, (4Z,6Z)-4,6-bis[(4-octyloxyphenyl)methylene]-2-ethoxy-2-methyl-1,3-dioxan-5-one], in series [1], the λmax is listed as 404, the E1% value is given as 557 and the Half-value width worked out at 87 nm. In series [3], the “Solubility in X-Tend 226” value is 1.0%.

On to `CCOC1(C)O/C(=C\c2ccc(Oc3ccccc3)cc2)C(=O)/C(=C/c2ccc(Oc3ccccc3)cc2)O1` (stereo not shown) [Example 7, (4Z,6Z)-4,6-bis[(4-phenoxyyphenyl)methylene]-2-ethoxy-2-methyl-1,3-dioxan-5-one], for which, in series [1], the λmax is on record as 389, the E1% value is recorded as 675 and the Half-value width is on record as 84 nm. Moreover, the “Solubility in X-Tend 226” value in series [3] was determined as 2.2%.

On to `CCCCN(CCCC)c1ccc(/C=C2\OC(C)(OCC)O/C(=C\c3ccc(N(CCCC)CCCC)cc3)C2=O)cc1` (stereo not shown) [Example 8, (4Z,6Z)-4,6-bis[[(4-dibutylamino)phenyl]methylene]-2-ethoxy-2-methyl-1,3-dioxan-5-one], for which, in series [1], the λmax is 486, the E1% value is listed as 953 and the Half-value width is recorded as 105 nm. In addition, in series [2], the “Temperature at which 98% of the weight were still present” value amounted to 274° ° C and the thermal stabilities entry is “excellent”. Further, in series [4], the Emission is given as 640 nm and the Excitation was 485 nm. For the same compound, in series [3], the “Solubility in X-Tend 226” value came to 2.8%.

In series [4], `CCOC1(C)O/C(=C\c2ccc(N(C)C)cc2OC)C(=O)/C(=C/c2ccc(N(C)C)cc2OC)O1` (stereo not shown) [Example 17, 2-ethoxy-2,6-bis-[1-(4-dimethylamino-2-methoxyphenyl)meth-(Z)ylidene]-2-methyl-1,3-dioxan-5-one] returned an Emission of 632 nm and an Excitation of 490 nm.

The values above are taken from patent US20130309184A1, “1,3-DIOXAN-5-ONE COMPOUNDS” (MERCK PATENT GMBH, priority 2011, published 2013).
